Experimental data taken from US9133181B2, “Substituted 6-(4-hydroxy-phenyl)-1H-pyrazolo[3,4-b]pyridine derivatives as kinase inhibitors” (SANOFI, priority 2012, dated 2015).

What follows are molecules tested against T1, human full-length recombinant PKC βII (Homo sapiens, UniProt P05771) (assay: Determination of PKC βII inhibition (Caliper mobility shift kinase assay)). Details: final compound concentration 1.14 μM (±0.15 μM); 60 min incubation at 32° C.
T1 construct: Active human full-length recombinant PKC βII; purchased Invitrogen GmbH, Darmstadt, Germany
T1 sequence (P05771 1-673 isoform P05771-2): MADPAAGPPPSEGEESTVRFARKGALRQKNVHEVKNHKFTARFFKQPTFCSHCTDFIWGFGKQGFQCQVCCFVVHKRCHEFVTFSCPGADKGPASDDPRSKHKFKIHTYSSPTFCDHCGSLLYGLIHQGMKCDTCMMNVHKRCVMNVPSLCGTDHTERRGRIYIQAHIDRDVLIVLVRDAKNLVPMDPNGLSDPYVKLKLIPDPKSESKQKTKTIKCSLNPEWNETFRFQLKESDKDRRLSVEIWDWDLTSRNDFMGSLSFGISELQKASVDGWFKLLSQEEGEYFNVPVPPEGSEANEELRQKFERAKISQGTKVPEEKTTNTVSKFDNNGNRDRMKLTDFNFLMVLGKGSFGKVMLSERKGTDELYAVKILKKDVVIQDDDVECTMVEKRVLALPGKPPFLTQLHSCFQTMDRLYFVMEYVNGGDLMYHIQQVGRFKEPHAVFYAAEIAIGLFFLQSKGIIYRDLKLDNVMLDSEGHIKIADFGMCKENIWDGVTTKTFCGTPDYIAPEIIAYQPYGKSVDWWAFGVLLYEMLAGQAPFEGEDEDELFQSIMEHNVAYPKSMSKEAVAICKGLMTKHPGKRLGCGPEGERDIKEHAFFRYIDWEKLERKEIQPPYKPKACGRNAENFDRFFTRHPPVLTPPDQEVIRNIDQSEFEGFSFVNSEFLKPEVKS
Format: biochemical
Description: Determination of PKC βII Inhibition
PKC βII inhibition was determined according to the following protocol:
Active human full-length recombinant PKC βII and the peptide substrate, Fluorescein-RFARKGSLRQKNV, were purchased from Invitrogen GmbH, Darmstadt, Germany. Adenosine-5′-triphosphate (ATP), bovine serum albumine (BSA), dimethylsulphoxide (DMSO), 4-(2-hydroxyethyl)piperazine-1-ethanesulfonic acid (Hepes), Triton X-100, 1,2-Dioleoyl-sn-glycerol (DAG), L-α-Phosphatidyl-L-serine (PS), calcium chloride (CaCl2), and Pluronic F-68 were purchased from Sigma-Aldrich, Munich, Germany. Magnesium chloride, 1 M sodium hydroxide solution, 1M hydrochloric acid solution and EDTA were obtained from Merck Biosciences, Darmstadt, Germany.
Test compounds were diluted to three times the test concentration in buffer 1 (30 mM Hepes-NaOH, pH 7.4, 0.01% Pluronic F-68 and 3% (v/v) DMSO). The […] enzyme was diluted to a concentration of 30 ng/ml in buffer 2 (30 mM Hepes-NaOH, pH 7.4, 15 mM MgCl2, 150 μM CaCl2, 150 μg/ml PS, 60 μg/ml DAG, and 0.045% (w/v) Triton X-100). The peptide substrate and ATP were diluted to concentrations of 3 μM and 120 μM, respectively, in buffer 2. Two μl of the compound solution were mixed with 2 μl of the diluted enzyme in a 384-well small volume microtiter plate (Greiner, Bio-One, Frickenhausen, Germany), and the kinase reaction was initiated by addition of 2 μl of the solution containing peptide substrate and ATP. After 60 min incubation at 32° C., the reaction was stopped by addition of 20 μl of a solution containing 130 mM Hepes-NaOH, pH 7.4, 0.0195% (v/v) Brij-35, 6.5 mM EDTA, 0.13% chip coating reagent 3 (Caliper Lifescience Inc, Hopkinton, Mass.) and 6.5% (v/v) DMSO. Phosphorylation of the substrate peptide was then detected on a Caliper 3000 instrument essentially as described by Pommereau et al (J. Biomol. Screening 2004, 9(5), 409-416). Separation conditions were as follows: Pressure −0.8 psi, upstream voltage −3000 V, downstream voltage −800 V. Positive controls (buffer 1 instead of compound) and negative controls (buffer 1 instead of compound and buffer 2 instead of kinase solution) were run in parallel on each plate. Fractional turnover (R) was determined as the height of the peak of the phosphorylated peptide product divided by the sum of the unphosphorylated substrate and phosphorylated product peak heights. Percent-inhibition values for the test compounds were determined using the formula % Inhibition=100*(1−(Rcompound−Rnegative control)/(Rpositive control−Rnegative control).
In the following table % inhibition values observed with example compounds at a final concentration of 1.14 μM (±0.15 μM) are listed: […]

| SMILES | % Inhibition [%] | inhibition at 1.14 µM [%] |
| --- | --- | --- |
| Cc1n[nH]c2nc(-c3ccc(O)cc3F)cc(CN3C[C@@H](c4ccccc4)NC[C@@H]3C)c12 (relative stereo) [Example 29, 3-Fluoro-4-[3-methyl-4-(trans-2-methyl-5-phenyl-piperazin-1-ylmethyl)-1H-pyrazolo[3,4-b]pyridin-6-yl]-phenol] | 90 |  |
| Cc1n[nH]c2nc(-c3ccc(O)cc3)cc(CN3C[C@@H](C)NC[C@@H]3c3ccccc3)c12 (relative stereo) [Example 43, 4-[3-Methyl-4-(trans-5-methyl-2-phenyl-piperazin-1-ylmethyl)-1H-pyrazolo[3,4-b]pyridin-6-yl]-phenol] | 58 |  |
| Cc1n[nH]c2nc(-c3ccc(O)cc3F)cc(CN3CCNCC3c3ccccc3)c12 (centres unmarked) [Example 1, 3-Fluoro-4-[3-methyl-4-(2-phenyl-piperazin-1-ylmethyl)-1H-pyrazolo[3,4-b]pyridin-6-yl]-phenol] |  | 95 |
| Cc1n[nH]c2nc(-c3ccc(O)cc3F)cc(CN3CCNCC3c3ccc(C(C)C)cc3)c12 (centres unmarked) [Example 2, 3-Fluoro-4-{4-[2-(4-isopropyl-phenyl)-piperazin-1-ylmethyl]-3-methyl-1H-pyrazolo[3,4-b]pyridin-6-yl}-phenol] |  | 65 |
| Cc1n[nH]c2nc(-c3ccc(O)cc3F)cc(CN3CCNCC3c3ccc(C(F)(F)F)cc3)c12 (centres unmarked) [Example 3] |  | 68 |
| Cc1n[nH]c2nc(-c3ccc(O)cc3F)cc(CN3CCNCC3c3ccc(F)cc3)c12 (centres unmarked) [Example 4, 3-Fluoro-4-{4-[2-(4-fluoro-phenyl)-piperazin-1-ylmethyl]-3-methyl-1H-pyrazolo[3,4-b]pyridin-6-yl}-phenol] |  | 94 |
| Cc1n[nH]c2nc(-c3ccc(O)cc3F)cc(CN3CCNCC3C(F)(F)F)c12 (centres unmarked) [Example 5, 3-Fluoro-4-[3-methyl-4-(2-trifluoromethyl-piperazin-1-ylmethyl)-1H-pyrazolo[3,4-b]pyridin-6-yl]-phenol] |  | 109 |
| Cc1n[nH]c2nc(-c3ccc(O)cc3F)cc(CN3CCNCC3c3cccc(F)c3)c12 (centres unmarked) [Example 6, 3-Fluoro-4-{4-[2-(3-fluoro-phenyl)-piperazin-1-ylmethyl]-3-methyl-1H-pyrazolo[3,4-b]pyridin-6-yl}-phenol] |  | 91 |
| Cc1n[nH]c2nc(-c3ccc(O)cc3F)cc(CN3CCNCC3c3cccc(C(F)(F)F)c3)c12 (centres unmarked) [Example 8, 3-Fluoro-4-{3-methyl-4-[2-(3-trifluoromethyl-phenyl)-piperazin-1-ylmethyl]-1H-pyrazolo[3,4-b]pyridin-6-yl}-phenol] |  | 92 |
| Cc1n[nH]c2nc(-c3ccc(O)cc3F)cc(CN3CCNCC3c3cc(F)cc(F)c3)c12 (centres unmarked) [Example 9, 4-{4-[2-(3,5-Difluoro-phenyl)-piperazin-1-ylmethyl]-3-methyl-1H-pyrazolo[3,4-b]pyridin-6-yl}-3-fluoro-phenol] |  | 81 |
| Cc1n[nH]c2nc(-c3ccc(O)cc3F)cc(CN3CCNCC3c3ccccc3F)c12 (centres unmarked) [Example 10, 3-Fluoro-4-{4-[2-(2-fluoro-phenyl)-piperazin-1-ylmethyl]-3-methyl-1H-pyrazolo[3,4-b]pyridin-6-yl}-phenol] |  | 102 |

Other lines, results leading:

| % Inhibition [%] | inhibition at 1.14 µM [%] | SMILES |
| --- | --- | --- |
|  | 103 | Cc1n[nH]c2nc(-c3ccc(O)cc3F)cc(CN3CCNCC34CCCC4)c12 [Example 7, 4-[4-(6,9-Diaza-spiro[4.5]dec-6-ylmethyl)-3-methyl-1H-pyrazolo[3,4-b]pyridin-6-yl]-3-fluoro-phenol] |
|  | 104 | Cc1n[nH]c2nc(-c3ccc(O)cc3F)cc(CN3CC(C)NCC3(C)C)c12 (centres unmarked) [Example 11, 3-Fluoro-4-[3-methyl-4-(2,2,5-trimethyl-piperazin-1-ylmethyl)-1H-pyrazolo[3,4-b]pyridin-6-yl]-phenol] |
|  | 94 | Cc1n[nH]c2nc(-c3ccc(O)cc3F)cc(CN3CCNCC3(C)c3ccccc3)c12 (centres unmarked) [Example 12, 3-Fluoro-4-[3-methyl-4-(2-methyl-2-phenyl-piperazin-1-ylmethyl)-1H-pyrazolo[3,4-b]pyridin-6-yl]-phenol] |
|  | 81 | Cc1n[nH]c2nc(-c3ccc(O)cc3F)cc(CN3CCNCC3)c12 [Example 13, 3-Fluoro-4-(3-methyl-4-piperazin-1-ylmethyl-1H-pyrazolo[3,4-b]pyridin-6-yl)-phenol] |
|  | 98 | Cc1n[nH]c2nc(-c3ccc(O)cc3F)cc(CN3CCNCC34CC4)c12 [Example 14, 4-[4-(4,7-Diaza-spiro[2.5]oct-4-ylmethyl)-3-methyl-1H-pyrazolo[3,4-b]pyridin-6-yl]-3-fluoro-phenol] |
|  | 96 | Cc1n[nH]c2nc(-c3ccc(O)cc3F)cc(CN3CC(C)(C)NCC34CCCC4)c12 [Example 15, 4-[4-(8,8-Dimethyl-6,9-diaza-spiro[4.5]dec-6-ylmethyl)-3-methyl-1H-pyrazolo[3,4-b]pyridin-6-yl]-3-fluoro-phenol] |
|  | 99 | Cc1n[nH]c2nc(-c3ccc(O)cc3F)cc(CN3CC(C)NCC34CCCC4)c12 (centres unmarked) [Example 16, 3-Fluoro-4-[3-methyl-4-(8-methyl-6,9-diaza-spiro[4.5]dec-6-ylmethyl)-1H-pyrazolo[3,4-b]pyridin-6-yl]-phenol] |
|  | 98 | Cc1n[nH]c2nc(-c3ccc(O)cc3F)cc(CN3CCNCC34CCC4)c12 [Example 17, 4-[4-(5,8-Diaza-spiro[3.5]non-5-ylmethyl)-3-methyl-1H-pyrazolo[3,4-b]pyridin-6-yl]-3-fluoro-phenol] |
|  | 98 | CCC1(CC)CNCCN1Cc1cc(-c2ccc(O)cc2F)nc2[nH]nc(C)c12 [Example 18, 4-[4-(2,2-Diethyl-piperazin-1-ylmethyl)-3-methyl-1H-pyrazolo[3,4-b]pyridin-6-yl]-3-fluoro-phenol] |
|  | 99 | Cc1n[nH]c2nc(-c3ccc(O)cc3F)cc(CN3CC(C)NCC3C(F)(F)F)c12 (centres unmarked) [Example 19, 3-Fluoro-4-[3-methyl-4-(5-methyl-2-trifluoromethyl-piperazin-1-ylmethyl)-1H-pyrazolo[3,4-b]pyridin-6-yl]-phenol] |
|  | 98 | Cc1n[nH]c2nc(-c3ccc(O)cc3F)cc(CN3CC(C(C)C)NCC3(C)C)c12 (centres unmarked) [Example 20, 3-Fluoro-4-[4-(5-isopropyl-2,2-dimethyl-piperazin-1-ylmethyl)-3-methyl-1H-pyrazolo[3,4-b]pyridin-6-yl]-phenol] |
|  | 93 | CCC1(C)CN(Cc2cc(-c3ccc(O)cc3F)nc3[nH]nc(C)c23)C(C)(C)CN1 (centres unmarked) [Example 21, 4-[4-(5-Ethyl-2,2,5-trimethyl-piperazin-1-ylmethyl)-3-methyl-1H-pyrazolo[3,4-b]pyridin-6-yl]-3-fluoro-phenol] |
|  | 89 | CCC1(CC)CN(Cc2cc(-c3ccc(O)cc3F)nc3[nH]nc(C)c23)C(C)(C)CN1 [Example 22, 4-[4-(5,5-Diethyl-2,2-dimethyl-piperazin-1-ylmethyl)-3-methyl-1H-pyrazolo[3,4-b]pyridin-6-yl]-3-fluoro-phenol] |
|  | 99 | Cc1n[nH]c2nc(-c3ccc(O)cc3F)cc(CN3CC(C)(C4CC4)NCC3(C)C)c12 (centres unmarked) [Example 23, 4-[4-(5-Cyclopropyl-2,2,5-trimethyl-piperazin-1-ylmethyl)-3-methyl-1H-pyrazolo[3,4-b]pyridin-6-yl]-3-fluoro-phenol] |
|  | 94 | Cc1n[nH]c2nc(-c3ccc(O)cc3F)cc(CN3CCCC(C)(N)C3)c12 (centres unmarked) [Example 24, 4-[4-(3-Amino-3-methyl-piperidin-1-ylmethyl)-3-methyl-1H-pyrazolo[3,4-b]pyridin-6-yl]-3-fluoro-phenol] |
